Experimental data from PubChem BioAssay (NCI).
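Values below derive from 48-hour exposures of cells grown in 96-well plates, with endpoints linearly interpolated between the two concentrations bracketing the appropriate inhibition level. Here, GI50 denotes the concentration required for 50% inhibition of growth. TGI is the concentration that stops growth completely.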

Legend:
Assay in all cases: inhibition of tumour cell growth, NCI panel, 48 h
HL-60(TB) leukemia = system: HL-60(TB) leukemia
K-562 leukemia = system: K-562 leukemia
MDA-MB-231 breast = system: MDA-MB-231 breast
SN12C renal = system: SN12C renal
A498 renal = system: A498 renal
SW-620 colon = system: SW-620 colon
KM12 colon = system: KM12 colon
MOLT-4 leukemia = system: MOLT-4 leukemia
IGROV1 ovarian = system: IGROV1 ovarian
EKVX NSCLC = system: EKVX NSCLC

Row | SMILES | GI50 (HL-60(TB) leukemia) [µM] | TGI (HL-60(TB) leukemia) [µM] | GI50 (K-562 leukemia) [µM] | TGI (K-562 leukemia) [µM] | GI50 (MDA-MB-231 breast) [µM] | TGI (MDA-MB-231 breast) [µM] | GI50 (SN12C renal) [µM] | TGI (SN12C renal) [µM] | GI50 (A498 renal) [µM] | TGI (A498 renal) [µM] | GI50 (SW-620 colon) [µM] | TGI (SW-620 colon) [µM] | GI50 (KM12 colon) [µM] | TGI (KM12 colon) [µM] | GI50 (MOLT-4 leukemia) [µM] | TGI (MOLT-4 leukemia) [µM] | GI50 (IGROV1 ovarian) [µM] | TGI (IGROV1 ovarian) [µM] | TGI (EKVX NSCLC) [µM] | GI50 (EKVX NSCLC) [µM]
1 | CCOCC[P+](c1ccccc1)(c1ccccc1)c1ccccc1 | 12.2 | 36 | 14.9 | > 100 | 22.6 | > 100 | 24.6 | > 100 | 17.6 | 64.2 | 25.2 | > 100 | 11.2 | > 100 | 31.4 | > 100 | 13.5 | 63.7 | – | –
2 | O=C1CC23CC(=O)CC2(C1)c1ccccc1C3=O (configuration not stated) | – | > 100 | – | > 100 | – | – | – | > 100 | – | – | – | > 100 | – | > 100 | – | > 100 | – | > 100 | > 100 | –
3 | Clc1cccc(Cc2cn3cc(-c4ccccc4)nc3s2)c1 | 9.13 | > 100 | 0.591 | > 100 | 1.91 | 21.3 | 7.41 | > 100 | – | – | 1.26 | > 100 | 1.99 | > 100 | > 100 | > 100 | 5.36 | > 100 | – | –
4 | COc1ccc(/C=C2\CCCC3=C2N=C2SC=NN2C3c2ccc(OC)c(OC)c2)cc1OC (configuration not stated) | 22.2 | 78 | 6.09 | > 100 | 26 | > 100 | 18.2 | > 100 | 2.76 | 40.8 | 10.1 | 39.3 | 11.8 | > 100 | 21.4 | > 100 | 28.9 | > 100 | – | –
5 | O=CN/C=C/c1ccccc1O | – | > 100 | – | > 31.6 | – | – | – | > 100 | – | > 100 | – | > 100 | – | > 100 | – | > 100 | – | > 100 | > 100 | –
6 | O=C(Nc1ccc(Cl)cc1Cl)/C(Cl)=C1/Sc2ccccc2NC1=O | – | 53.8 | – | > 100 | – | – | – | > 100 | – | > 100 | – | > 100 | – | – | – | 87 | – | > 100 | > 100 | –
7 | O=[N+]([O-])c1ccc(C2N3CCCCC3[C@@H]3c4[nH]c5ccccc5c4CCN23)cc1 (some centres not stated) | – | > 100 | – | > 100 | – | – | – | 32.3 | – | 36.5 | – | > 100 | – | – | – | 49.6 | – | > 100 | > 100 | –
8 | N=C(N)c1ccc(-c2ccc(-c3ccco3)o2)cc1F | 2.19 | 4.29 | 1.58 | 3.82 | 1.6 | 4.01 | 2.01 | 6.53 | 1.36 | 4.83 | 1.72 | 3.7 | 1.92 | 3.62 | 2.27 | 5.22 | 2.13 | 6.02 | – | –
9 | O=C(Cc1nc2ccccc2s1)NC12CC3CC(CC(C3)C1)C2 | – | > 100 | – | > 100 | – | – | – | > 100 | – | > 100 | – | > 100 | – | > 100 | – | > 100 | – | – | > 100 | –
10 | O=c1[nH]c(C2CCCCC2)nc2cc(Cl)ccc12 | – | – | – | > 100 | – | – | – | > 100 | – | – | – | > 100 | – | > 100 | – | > 100 | – | > 100 | > 100 | –
11 | COc1ccc(OC)c2c3c(ncc12)-c1cc2c(cc1C3)OCO2 | 24.8 | > 100 | 24.6 | > 100 | 4.76 | > 100 | > 100 | > 100 | – | – | > 100 | > 100 | > 100 | > 100 | – | – | 4.24 | > 100 | > 100 | 93.4
12 | C=C1CCC2C(C)(CO)C(O)CCC2(C)C1CC(O)C1=CCOC1=O (configuration not stated) | – | 85.9 | – | > 100 | – | – | – | > 100 | – | > 100 | – | 51.3 | – | > 100 | – | > 100 | – | > 100 | > 100 | –
13 | Cc1ccc(S(=O)(=O)NC(=O)Nc2nc(Cl)cc(Cl)n2)cc1 | – | > 100 | – | > 100 | – | – | – | > 100 | – | > 100 | – | > 100 | – | > 100 | – | > 100 | – | > 100 | > 100 | –
14 | C/C(CC(=O)Nc1ccc([N+](=O)[O-])cc1)=N/N=C(N)N | – | > 100 | – | > 100 | – | – | – | – | – | – | – | > 100 | – | > 100 | – | > 100 | – | > 100 | > 100 | –
15 | CC(C)(C)C1CCN(C(=O)c2ccccc2)CC1 | – | > 100 | – | > 100 | – | – | – | > 100 | – | > 100 | – | > 100 | – | > 100 | – | > 100 | – | > 100 | > 100 | –
16 | COc1ccc(/C=C/C(=O)c2ccc(NC(=O)CSc3nnc(-c4cc(OC)c(OC)c(OC)c4)o3)cc2)cc1 | – | – | – | – | 1.82 | 3.5 | 1.83 | 3.57 | 11 | 23.6 | 1.86 | 3.6 | 1.77 | 3.4 | 2.05 | 5.27 | – | – | – | –
17 | Cc1ccccc1C(C#N)/C(=N/NC(=O)C(=O)NN)C(=O)Nc1cccc(C(F)(F)F)c1 (configuration not stated) | – | > 100 | – | > 100 | – | – | – | > 100 | – | > 100 | – | > 100 | – | > 100 | – | > 100 | – | > 100 | > 100 | –
18 | COc1ccc(-c2oncc2-c2cc(OC)c3c(c2)OCO3)cc1 | 2.53 | > 26.5 | 0.441 | > 100 | 2.8 | 54 | 5.23 | > 100 | 1.49 | 7.4 | 1.18 | > 100 | 2.66 | > 82.2 | 3.9 | > 92.6 | 3.9 | > 65.7 | – | –
